The values below come from ChEMBL document CHEMBL1201862, “PubChem BioAssay data set” (2004).

Molecules are shown by their SMILES.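 Briefly, cells in 96-well plates were exposed to five compound concentrations for 48 h, and endpoints were estimated by linear interpolation. At the GI50, growth is halved.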 Activity calls are given as the source filed them. Cut-off read from the data, not from the text of the source: active = GI50 up to about 1.1 µM and inactive = higher.

Assay in all cases: NCI-60 cell line screen, 48 h
In test [1] the test system is HCT-15.
The test system of test [2] is SR.
The test system of test [3] is MDA-MB-231.
Test [4] has as its system ACHN.
Test [5] relates to A549.
Test [6] relates to KM12.
Test [7] relates to HT-29.
Test [8] concerns NCI-H226.
Test [9] has as its system COLO 205.
The test system of test [10] is Malme-3M.
Test [11] relates to SNB-75.
The subject of test [12] is OVCAR-4.
The test system of test [13] is CCRF-CEM.
Test [14] concerns A498.
Test [15] has as its system UACC-62.
Test [16] deals with MCF7.
Test [17] relates to LOX IMVI.
In test [18] the test system is 786-0.
In test [19] the test system is SF-295.
The test system of test [20] is SK-MEL-2.

`O=C(Sc1c(-c2ccccc2)c(=O)n(-c2ccccc2)c(=S)n1-c1ccccc1)c1ccc(Cl)cc1`: the GI50 in [1] is more than 100 µM; in [2], > 100 µM (inactive); in test [3], 55.8 µM (inactive); in test [4], > 100 µM (inactive); in test [5] it was > 100 µM (inactive); in test [6], > 100 µM (inactive). Moreover, the GI50 in [7], in [8], in test [9], in [10], in [11] and in [12] was > 100 µM (inactive) throughout. Moreover, the GI50 in [13] was 32.5 µM (inactive); in [14] it was 98.9 µM (inactive); in [15] it was > 100 µM (inactive); in [16] it was 74.3 µM (inactive); in test [17], > 100 µM (inactive); in test [18] it was > 100 µM (inactive). In addition, the GI50 in test [19] is > 100 µM (inactive).

For `O=C1NCC2(CCN(Cc3ccccc3)CC2)N1`, the GI50 in test [1] was more than 100 µM; in test [2], > 100 µM (inactive); in test [20], > 100 µM (inactive); in [3], > 100 µM (inactive); in test [4] it was > 100 µM (inactive); in test [5], > 100 µM (inactive). Moreover, the GI50 in test [6], in test [7], in test [8], in test [9], in test [10] and in test [11] was > 100 µM (inactive) in each case. The GI50 in [12], in [13], in test [15], in test [16], in test [17] and in test [18] was > 100 µM (inactive) throughout. Also, the GI50 in test [19] was > 100 µM (inactive).

With `c1ccc(-c2cc(C3CO3)c3ccccc3n2)cc1` (centres undefined), the GI50 is 19.5 µM in [1]; 18.3 µM (inactive) in test [2]; 18.4 µM (inactive) in test [20]; 23.3 µM (inactive) in [3]; 18.4 µM (inactive) in test [4]; 20.1 µM (inactive) in test [5]. For the same compound, the GI50 in [6] was 17.5 µM (inactive); in test [7], 19.4 µM (inactive); in [8], 19.1 µM (inactive); in test [9], 19.7 µM (inactive); in test [11], 25.9 µM (inactive); in [12], 21.5 µM (inactive). Moreover, the GI50 in [13] is 29.6 µM (inactive); in test [14], 19.7 µM (inactive); in [15] it was 18.5 µM (inactive); in test [16], 16.2 µM (inactive); in test [17], 18.6 µM (inactive); in test [18], 15.5 µM (inactive). Besides, the GI50 in test [19] was 35.2 µM (inactive).

On to `C=C(C)C1CC(=O)C(C)=C(O)C1` (centres undefined), for which the GI50 in test [1] is more than 100 µM; in test [2], > 100 µM (inactive); in test [20] it was > 100 µM (inactive); in test [3], > 100 µM (inactive); in test [4] it was > 100 µM (inactive); in test [5], > 100 µM (inactive). Besides, the GI50 in test [6], in [7], in [8], in test [9], in test [10] and in test [11] was > 100 µM (inactive) each time. For the same compound, the GI50 in [12], in test [13], in [15], in test [16], in [17] and in test [18] was > 100 µM (inactive) each time. The GI50 in test [19] is > 100 µM (inactive).

Turning to `O=C1C(Cl)=C(N2C(=O)CCC2=O)C(=O)c2ccccc21`, the GI50 in [1] is 13.2 µM; in test [2], 32 µM (inactive); in [20], 39.8 µM (inactive); in test [3], 27.5 µM (inactive); in test [4] it was 15.7 µM (inactive); in test [5], 31.8 µM (inactive). Moreover, the GI50 in test [6] is 41.8 µM (inactive); in [7], 29 µM (inactive); in test [8] it was > 100 µM (inactive); in test [9], 15.2 µM (inactive); in test [11], > 100 µM (inactive); in test [13], 2.62 µM (inactive). Besides, the GI50 in test [14] is 37.9 µM (inactive); in test [15] it was 34 µM (inactive); in test [16], 17.2 µM (inactive); in test [17], 27.3 µM (inactive); in [18], 18.7 µM (inactive); in test [19], > 100 µM (inactive).

As to `COc1ccc(C(OC(C)=O)C2C(=C(C#N)C#N)c3ccccc3C2=C(C#N)C#N)cc1` (centres undefined), the GI50 in test [1] was 31.2 µM; in [2], 16.1 µM (inactive); in test [20], 27.7 µM (inactive); in [3], 39.5 µM (inactive); in [4], 36.4 µM (inactive); in [6], 43.7 µM (inactive). For the same compound, the GI50 was 29.9 µM (inactive) in test [7]; 38.6 µM (inactive) in [8]; 36.1 µM (inactive) in test [11]; 32.4 µM (inactive) in test [12]; 21.8 µM (inactive) in [13]; 24.1 µM (inactive) in test [14]. The GI50 in [16] is 48.3 µM (inactive); in test [17] it was 33.9 µM (inactive); in test [18], 60.4 µM (inactive); in [19], 19.9 µM (inactive).

As for `CC(C1CCCC1=O)C1CCCC1=O` (centres undefined), the GI50 in test [1] was more than 100 µM; in [2], > 100 µM (inactive); in test [20] it was > 100 µM (inactive); in [3], > 100 µM (inactive); in test [4], > 100 µM (inactive); in [5], > 100 µM (inactive). Also, the GI50 in [6], in [7], in [8], in test [9], in test [10] and in [11] was > 100 µM (inactive) each time. The GI50 in [12], in [13], in test [15], in test [16], in test [17] and in test [18] was > 100 µM (inactive) in each case. Further, in test [19], the GI50 is > 100 µM (inactive).

For `C[C@@H](NC(=O)OC1C=CC2(CC1)C(=O)N(C)c1ccccc12)c1cccc2ccccc12` (some centres undefined), the GI50 in test [1] is 14.9 µM; in test [2], 10.2 µM (inactive); in [20], > 25 µM (inactive); in test [3] it was > 25 µM (inactive); in [4], > 25 µM (inactive); in test [5], 12.8 µM (inactive). The GI50 in test [6] was 11.6 µM (inactive); in test [7], > 25 µM (inactive); in [8], 21.8 µM (inactive); in [9], 15.1 µM (inactive); in test [11], 21.5 µM (inactive); in [12] it was 16.3 µM (inactive). Also, the GI50 in test [13] is 14.7 µM (inactive); in [14], > 25 µM (inactive); in test [15], > 25 µM (inactive); in test [16], 7.59 µM (inactive); in test [17], 19.7 µM (inactive); in test [18], > 25 µM (inactive). In test [19], the GI50 is 12.7 µM (inactive).

For the compound `O=C1C(Br)=CC2(C=C1Br)CCNC1=C2C(=O)c2[nH]cnc2C1=O`, the GI50 is 15.6 µM in test [1]; 30.1 µM (inactive) in test [2]; 9.12 µM (inactive) in test [20]; 15.8 µM (inactive) in [3]; 14.6 µM (inactive) in test [4]; 18.3 µM (inactive) in [5]. Besides, the GI50 in [6] was 16.9 µM (inactive); in test [7] it was 15.5 µM (inactive); in [8], 20.4 µM (inactive); in test [9], 21.3 µM (inactive); in [11] it was 15.6 µM (inactive); in test [12] it was 14.5 µM (inactive). Also, the GI50 was 15 µM (inactive) in test [13]; 19 µM (inactive) in test [14]; 11.9 µM (inactive) in test [15]; 14.6 µM (inactive) in test [16]; 13.5 µM (inactive) in test [17]; 16.4 µM (inactive) in [18]. The GI50 in [19] was 16.2 µM (inactive).

As for `CC(NC(=O)C(Cc1ccc(OC(=O)c2ccccc2)cc1)NC(=O)OC(C)(C)C)C(=O)NCC(=O)NC(Cc1ccccc1)NC(=O)OCc1ccccc1` (centres undefined), the GI50 in test [1] was more than 100 µM; in test [2] it was 87.5 µM (inactive); in test [3] it was > 100 µM (inactive); in test [4] it was > 100 µM (inactive); in test [5], > 100 µM (inactive); in test [6], > 100 µM (inactive). For the same compound, the GI50 in test [7] is > 100 µM (inactive); in [8], > 100 µM (inactive); in test [9], > 100 µM (inactive); in test [10] it was > 100 µM (inactive); in [11], > 100 µM (inactive); in test [12], 15.8 µM (inactive). In addition, the GI50 in test [14] is 28.5 µM (inactive); in [15] it was > 100 µM (inactive); in test [16], > 100 µM (inactive); in test [17] it was > 100 µM (inactive); in test [18] it was > 100 µM (inactive); in test [19], > 100 µM (inactive).

`O=C1/C(=C/c2cccc(Br)c2)CCc2ccccc21`: the GI50 is 11.5 µM in test [1]; 4.1 µM (inactive) in [2]; 12.9 µM (inactive) in [20]; 20.4 µM (inactive) in [3]; 14.2 µM (inactive) in test [4]; 16.4 µM (inactive) in test [5]. For the same compound, the GI50 in test [6] was 4.02 µM (inactive); in test [7], 10.9 µM (inactive); in [8], 15.2 µM (inactive); in test [9], 20.8 µM (inactive); in [10], 12.4 µM (inactive); in [11], 14.5 µM (inactive). Further, the GI50 in [12] was 13.1 µM (inactive); in test [13] it was 3.26 µM (inactive); in [15], 10.5 µM (inactive); in test [16] it was 3.75 µM (inactive); in [17], 12.8 µM (inactive); in test [18] it was 16.3 µM (inactive). The GI50 in test [19] was 15.2 µM (inactive).
